Where “and” joins values, the source holds several entries; their conditions need not be identical. Equal values may be shown once. Inconclusive results and toxic doses are left out. Numbered stars: 1 amine (or outer) side, 2 acyl side, 3 side chain; on linkers, the order of the positions; unused ones are H or OH. Bridge positions count the residues as written; N and C are the ends. Square brackets hold non-standard residues; d marks the D form. Peptide text beside a SMILES is read from it. I, II: the chains in the order shown. Actinocin(9to1) = Cc1c2oc3c(C)ccc(C(=O)[*:1])c3nc-2c(C(=O)[*:2])c(N)c1=O; aThr = C[C@H](O)[C@H](N)C(=O)O; NMeV = CN[C@H](C(=O)O)C(C)C; Sar = CNCC(=O)O

In the assay the test system is Gardner 6C3HED lymphosarcoma ip, C3AKF1 mice, survival T/C. Description: NCI In Vivo Anticancer Drug Screen. Data for tumor model Lymphosarcoma Gardner 6C3HED (intraperitoneal) in C3AKF1 (CHKRF1) mice. As to conditions: endpoint: survival time, mean or median, higher = longer survival. As for the experimental part:
The antitumor activity of compounds was measured in mice bearing transplantable tumors. Survival or tumor size were measured and the results are expressed as the measurement made in the treated group (T) divided by the measurement made in the vehicle treated control group (C). The tumor model used in this assay is Lymphosarcoma Gardner 6C3HED (intraperitoneal) in C3AKF1 (CHKRF1) mice

Setting [1] is: dose: 12.5 mg/kg/injection, schedule: Q01DX010 (sc), vehicle: steriod suspending solution.
The mark [2] stands for this setting: dose: 25.0 mg/kg/injection, schedule: Q01DX010 (sc), vehicle: steriod suspending solution.
[3] abbreviates: dose: 50.0 mg/kg/injection, schedule: Q01DX010 (sc), vehicle: steriod suspending solution.
[4] abbreviates: dose: 1.0 mg/kg/injection, schedule: Q01DX010 (ip), vehicle: saline.
[5] abbreviates: dose: 2.0 mg/kg/injection, schedule: Q01DX010 (ip), vehicle: saline.
[6] abbreviates: dose: 4.0 mg/kg/injection, schedule: Q01DX010 (ip), vehicle: saline.
Setting [7] is: dose: 8.0 mg/kg/injection, schedule: Q01DX010 (ip), vehicle: saline.
Where [8] appears, read: dose: 5.0 mg/kg/injection, schedule: Q01DX010 (ip), vehicle: saline.
Setting [9] is: dose: 10.0 mg/kg/injection, schedule: Q01DX010 (ip), vehicle: saline.
Where [10] appears, read: dose: 20.0 mg/kg/injection, schedule: Q01DX010 (ip), vehicle: saline.
Setting [11] is: dose: 3.0 mg/kg/injection, schedule: Q01DX010 (ip), vehicle: saline.
The mark [12] stands for this setting: dose: 6.0 mg/kg/injection, schedule: Q01DX010 (ip), vehicle: saline.
Setting [13] is: dose: 12.0 mg/kg/injection, schedule: Q01DX010 (ip), vehicle: saline.
Where [14] appears, read: dose: 16.0 mg/kg/injection, schedule: Q01DX010 (ip), vehicle: saline.
Where [15] appears, read: dose: 40.0 mg/kg/injection, schedule: Q01DX010 (ip), vehicle: saline.
Where [16] appears, read: dose: 32.0 mg/kg/injection, schedule: Q01DX010 (ip), vehicle: saline.
The mark [17] stands for this setting: dose: 64.0 mg/kg/injection, schedule: Q01DX010 (ip), vehicle: saline.
Where [18] appears, read: dose: 12.5 mg/kg/injection, schedule: Q01DX010 (ip), vehicle: saline.
Where [19] appears, read: dose: 50.0 mg/kg/injection, schedule: Q01DX010 (ip), vehicle: saline.

With `O=C(Nc1ccc(C2=NCCN2)cc1)c1ccc(C(=O)Nc2ccc(C3=NCCN3)cc2)cc1`, the T/C is, setting by setting: (dose: 4.0 mg/kg/injection, schedule: Q01DX010 (ip), vehicle: other) 179 % of control and 186 % of control; (dose: 8.0 mg/kg/injection, schedule: Q01DX010 (ip), vehicle: other) 277 % of control and 300 % of control; (dose: 16.0 mg/kg/injection, schedule: Q01DX010 (ip), vehicle: other) 229 % of control and 300 % of control; (dose: 32.0 mg/kg/injection, schedule: Q01DX010 (ip), vehicle: other) 175 % of control and 200 % of control; (dose: 64.0 mg/kg/injection, schedule: Q01DX010 (ip), vehicle: other) 166 % of control and 200 % of control.
Regarding `CC/C(=C(/CC)c1ccc(O)cc1)c1ccc(O)cc1`, the T/C reads like this: under setting [1], 104 % of control and 105 % of control; under setting [2], 100 % of control and 105 % of control; under setting [3], 95 % of control and 100 % of control; (dose: 100.0 mg/kg/injection, schedule: Q01DX010 (sc), vehicle: steriod suspending solution) 95 % of control and 100 % of control.
Take `CCN(CC)c1ccc2cc3ccc(=[N+](CC)CC)cc-3oc2c1`: the T/C is 100 % of control and 109 % of control under setting [4]; 100 % of control and 122 % of control under setting [5]; 100 % of control and 104 % of control under setting [6]; 95 % of control and 100 % of control under setting [7].
Turning to `Cc1cc(N(CCCl)CCCl)ccc1N=Nc1ccccc1C(=O)O`, the T/C by setting is: under setting [8], 109 % of control and 116 % of control; under setting [9], 113 % of control; under setting [10], 118 % of control.
As to `S=P(N1CC1)(N1CC1)N1CC1`, the T/C is 115 % of control and 120 % of control under setting [4]; 120 % of control under setting [5]; 160 % of control under setting [6]; 90 % of control and 110 % of control under setting [7].
Turning to `Nc1ncnc2[nH]ncc12`, the T/C was 95 % of control and 110 % of control (dose: 1.5 mg/kg/injection, schedule: Q01DX010 (ip), vehicle: saline); 100 % of control and 104 % of control under setting [11]; 95 % of control under setting [12]; 95 % of control under setting [13]; 90 % of control under setting [14].
In the case of `O=C(Nc1ccc(NC2=NCCN2)cc1)c1ccc(C(=O)Nc2ccc(NC3=NCCN3)cc2)cc1`, the T/C under setting [5] is 180 % of control; the T/C under setting [6] is 195 % of control and 265 % of control; the T/C under setting [7] was 190 % of control; the T/C under setting [14] was 115 % of control.
With `O=c1cn[nH]c(=O)[nH]1`, the T/C reads like this: (dose: 62.5 mg/kg/injection, schedule: Q01DX010 (ip), vehicle: saline) 100 % of control and 104 % of control; (dose: 125.0 mg/kg/injection, schedule: Q01DX010 (ip), vehicle: saline) 104 % of control; (dose: 250.0 mg/kg/injection, schedule: Q01DX010 (ip), vehicle: saline) 90 % of control and 95 % of control; (dose: 500.0 mg/kg/injection, schedule: Q01DX010 (ip), vehicle: saline) 90 % of control.
With `O[C@H](CN1CC1)[C@@H](O)CN1CC1`, the T/C reads like this: (dose: 62.5 micrograms/kg/injection, schedule: Q01DX010 (ip), vehicle: saline) 96 % of control; (dose: 125.0 micrograms/kg/injection, schedule: Q01DX010 (ip), vehicle: saline) 92 % of control; (dose: 250.0 micrograms/kg/injection, schedule: Q01DX010 (ip), vehicle: saline) 155 % of control; (dose: 500.0 micrograms/kg/injection, schedule: Q01DX010 (ip), vehicle: saline) 151 % of control.
For the compound `Cc1c2oc3c(C)ccc(C(=O)N[C@@H]4C(=O)N[C@H](C(C)C)C(=O)N5CCC[C@H]5C(=O)N(C)CC(=O)N(C)[C@@H](C(C)C)C(=O)O[C@H]4C)c3nc-2c(C(=O)N[C@@H]2C(=O)N[C@H](C(C)C)C(=O)N3CCC[C@H]3C(=O)N(C)CC(=O)N(C)[C@@H](C(C)C)C(=O)O[C@H]2C)c(N)c1=O` (I: [aThr][dV]P[Sar][NMeV] / II: [aThr][dV]P[Sar][NMeV]; ester I:1-I:C, II:1-II:C; linker I:N-II:N via Actinocin(9to1)), the T/C is 100 % of control and 110 % of control (dose: 0.01 mg/kg/injection, schedule: Q01DX010 (ip), vehicle: acid diluted with saline); 120 % of control (dose: 0.03 mg/kg/injection, schedule: Q01DX010 (ip), vehicle: acid diluted with saline).
Take `N=C(N)c1ccc(Nc2ccc(C(=N)N)cc2)cc1`: the T/C is 103 % of control under setting [11], 96 % of control under setting [12] and 96 % of control under setting [13].
For `S=P(N1CCOCC1)(N1CC1)N1CC1`, the T/C reads like this: (dose: 2.5 mg/kg/injection, schedule: Q01DX010 (ip), vehicle: saline) 91 % of control and 100 % of control (2×); under setting [8], 91 % of control and 92 % of control and 104 % of control; under setting [9], 89 % of control and 91 % of control and 104 % of control; under setting [10], 108 % of control and 121 % of control.
With `OCC1OC(n2cnc3c(=S)nc[nH]c32)C(O)C1O` (stereo not drawn), the T/C was 90 % of control and 95 % of control under setting [10]; 86 % of control under setting [15]; 90 % of control (dose: 80.0 mg/kg/injection, schedule: Q01DX010 (ip), vehicle: saline); 86 % of control and 90 % of control (dose: 160.0 mg/kg/injection, schedule: Q01DX010 (ip), vehicle: saline).
For `Nc1nc(SCc2ccccc2)c2[nH]cnc2n1`, the T/C is 95 % of control and 100 % of control under setting [7]; 95 % of control and 104 % of control under setting [14]; 90 % of control and 91 % of control and 104 % of control under setting [16]; 87 % of control and 100 % of control (2×) under setting [17].
`COS(C)(=O)=O`: the T/C is, setting by setting: under setting [18], 111 % of control; under setting [19], 300 % of control; (dose: 100.0 mg/kg/injection, schedule: Q01DX010 (ip), vehicle: saline) 176 % of control.
`CCCNc1ncnc2[nH]ncc12`: the T/C is, setting by setting: (dose: 3.13 mg/kg/injection, schedule: Q01DX010 (ip), vehicle: saline) 86 % of control and 90 % of control; (dose: 6.25 mg/kg/injection, schedule: Q01DX010 (ip), vehicle: saline) 90 % of control; under setting [18], 90 % of control and 95 % of control.
Regarding `O=C(Nc1ccc(C2=NCCN2)cc1)c1cccc(C(=O)Nc2ccc(C3=NCCN3)cc2)c1`, the T/C was 183 % of control and 200 % of control under setting [7]; 272 % of control and 300 % of control under setting [14]; 279 % of control and 300 % of control under setting [16]; 279 % of control and 290 % of control under setting [17].
Take `Clc1ncnc2nc[nH]c12`: the T/C runs as follows: (dose: 7.5 mg/kg/injection, schedule: Q01DX010 (ip), vehicle: saline) 87 % of control and 95 % of control; (dose: 15.0 mg/kg/injection, schedule: Q01DX010 (ip), vehicle: saline) 95 % of control; (dose: 30.0 mg/kg/injection, schedule: Q01DX010 (ip), vehicle: saline) 95 % of control.
For the compound `CCN(CC)CCNc1ccc(C)c2sc3ccccc3c(=O)c12`, the T/C was 100 % of control under setting [18]; 114 % of control (dose: 25.0 mg/kg/injection, schedule: Q01DX010 (ip), vehicle: saline); 91 % of control and 114 % of control under setting [19].
In the case of `c1ccc(CNc2ncnc3[nH]ncc23)cc1`, the T/C was 100 % of control and 119 % of control under setting [7]; 104 % of control and 105 % of control under setting [14]; 90 % of control and 95 % of control under setting [16]; 90 % of control and 95 % of control under setting [17].
As to `CC(=O)O[C@]1(C(C)=O)CC[C@H]2[C@@H]3C[C@H](C)C4=CC(=O)C=C[C@]4(C)[C@@]3(F)[C@@H](O)C[C@@]21C`, the T/C runs as follows: under setting [1], 111 % of control; under setting [2], 92 % of control; under setting [3], 88 % of control.
Regarding `O=c1[nH]cc(F)c(=O)[nH]1`, the T/C was 158 % of control under setting [9], 295 % of control under setting [10] and 87 % of control under setting [15].
`C[n+]1c2ccccc2nc2c(N)cc(N)cc21`: the T/C runs as follows: under setting [13], 113 % of control; (dose: 18.0 mg/kg/injection, schedule: Q01DX010 (ip), vehicle: saline) 122 % of control; under setting [15], 113 % of control.

Values taken from PubChem BioAssay AID232 (DTP/NCI, 2004).
